Consider 33 compounds from patent US7816361B2, “Immuno inhibitory pyrazolone compounds” (Medigene Limited, priority 2003, dated 2010).

The target of one assay is T1, Biotinylated human CD80 (hCD80-BT) (Homo sapiens, UniProt P33681).
T1 construct: biotin (biotinylation)
T1 sequence (P33681 35-242 limits assumed): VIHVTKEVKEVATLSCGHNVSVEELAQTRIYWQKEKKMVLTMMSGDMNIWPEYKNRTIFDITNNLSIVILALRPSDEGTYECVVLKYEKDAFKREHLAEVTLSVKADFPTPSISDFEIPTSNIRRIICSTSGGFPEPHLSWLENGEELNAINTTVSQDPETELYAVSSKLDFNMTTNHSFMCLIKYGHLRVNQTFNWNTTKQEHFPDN
Nature of the assay: Biacore biomolecular interaction analysis (BIAcore S51). In kind it is binding. Conditions: BIAcore S51, immobilised hCD80-BT. An excerpt:
Assay Protocols The Use of Biacore Biomolecular Interaction Analysis
Biotinylated human CD80 (hCD80-BT) is a recombinant soluble form of a membrane bound receptor molecule (CD80) which binds to CD28 to initiate T cell activation. The interaction between CD80 and CD28 has been extensively investigated (Collins et al., 2002). Biotinlyated human HLA-A2-tax is the recombinant soluble form of a membrane bound receptor molecule that has been used in this example as a control protein, and is not expected to interact with the compounds.
The BIAcore S51™ system was used for screening the compounds of Examples 1-4 above. A series S sensor chip CM5 was docked onto the BIAcore S51™. Streptavidin was coupled to the carboxymethyl surface using standard amine coupling. The chip surface was activated with 0.2M EDC/0.05M NHS, followed by binding of streptavidin (0.25 mg/ml in 10 mM sodium acetate pH 5.0) and saturation of unoccupied sites with […].
The BIAcore S51 sensor chip has two separate sensor spots for immobilisation of proteins. hCD80-BT was immobilised on the streptavidin-coated surface of one sensor spot until a response of approximately 3000 RU was observed. A protein to control for non-specific binding of the compound was immobilised on a second sensor spot. The control protein used for these experiments was a biotinylated, soluble form of the human HLA protein.
Dilution series of compounds (1000 nM-0.05 nM) were prepared in running buffer (10 mM, pH 7.4, 150 mM NaCl, 0.005% P20; 5% DMSO).
BIAcore S51™ was run at a flow rate of 30 μl/min using running buffer. Compounds and DMSO standard solutions for correction of data for solvent effects were injected. Data were recorded automatically and were analysed using BIAcore S51 Evaluation software.
One may read the Kd as the constant that tells how readily two partners part at equilibrium. `CN1C(C)(C)CC(NC(=O)c2ccc(-n3[nH]c(-c4ccccc4)cc3=O)cc2)CC1(C)C` [Example 7]: the Kd is less than 0.1 µM and the “off-rate on CD80” value was 2×10^−2. The matching figures for `CN(C)CCCNC(=O)c1ccc(-n2[nH]c(-c3ccco3)cc2=O)cc1` [Example 11]: less than 0.1 µM and 2×10^−2.

In the next assay the test system is IL-2 production by human Jurkat T cells (with Raji cells, anti-CD3). The assay can be described thus: Inhibition of production of interleukin-2 (IL-2) by human Jurkat T cells. In kind it is cell-based. The conditions noted are these: 5 hours. Here is the method:
Inhibition of Production of Interleukin-2 (IL-2) by Human Jurkat T Cells.
Human Raji cells were dispensed at a concentration of 2×10^5 cells per well in RPMI-1640 medium supplemented with 10% fetal calf serum, 1% penicillin/streptomycin, 1% glutamine (RPMI medium) in a 96-well round bottom microtitre plate. Compounds under investigation (dissolved in 100% DMSO) were diluted to eight-fold the desired final concentration in RPMI medium and added to the required final concentration for a total volume of 200 μl per well. After 20 minutes incubation at 37° C., Jurkat T cells were added at a concentration of 2×10^5 cells per well. Monoclonal antibody to CD3 (UCHT1, R&D Systems) was added to the cultures at a final concentration of 1 μg per ml, and where indicated, monoclonal antibody to CD28 (CD28.2, BD-Pharmingen) was also added at a concentration of 2.5 μg per ml. Cells were cultured at 37° C. for 5 hours, after which the plates were centrifuged and the supernatants harvested for IL-2 ELISA assay using the IL-2 Eli-pair kit (DIACLONE Research, Besancon, France) according to the manufacturers instructions.
Broadly, the inhibition is the drop in the measured response relative to a control, in per cent. Lower therefore signals a weak effect. For `CN(C)CCCNC(=O)c1ccc(-n2[nH]c(-c3cccc(F)c3)cc2=O)cc1` [Example 26], the inhibition at 30 µM turned out to be 52%.

Another assay concerns the target T1, Biotinylated human CD80 (hCD80-BT).
Assay: not given
The conditions noted are these: endogenous protein ligand CD28; cited from earlier work.
Turning to “CD28: the endogenous protein ligand of CD80”, the “off-rate of CD80-CD28 interaction” value is “greater than 0.2 s^−1”.

Still in this assay, the particulars now being: endogenous protein ligand CD28; read-out: KD of CD80-CD28 interaction; cited from earlier work.
On to “CD28: the endogenous protein ligand of CD80”, for which the Kd was 4.75 µM.

The next assay addresses T2, CD80-CD28 interaction (Homo sapiens, UniProt P33681).
T2 sequence (P33681 35-242 limits assumed): T1 sequence (P33681 35-242 limits assumed)
Nature of the assay: Homogenous Time Resolved Fluorescence (HTRF) assay, cell free. Conditions: inhibition of CD80-CD28 interaction; concentration series 100 μM-1.7 nM; 4 hours at room temperature; read-out: Activity Rating (EC50) in the HTRF assay. In kind it is binding. Here is the method: Homogenous Time Resolved Fluorescence Assay
The examples described above were tested in a cell free Homogenous Time Resolved Fluorescence (HTRF) assay to determine their activity as inhibitors of the CD80-CD28 interaction.
In the assay, europium and allophycocyanin (APC) are associated with CD28 and CD80 indirectly (through antibody linkers) to form a complex, which brings the europium and APC into close proximity to generate a signal. The complex comprises the following six proteins: fluorescent label 1, linker antibody 1, CD28 fusion protein, CD80 fusion protein, linker antibody 2, and fluorescent label 2. The table below describes these reagents in greater detail.
On formation of the complex, europium and APC are brought into proximity and a signal is generated.
Non-specific interaction was measured by substituting a mouse Fab fragment (C215) for the CD80 mouse Fab fragment fusion protein (1.9 μg/ml). The assay was carried out in black 384 well plates in a final volume of 30 μl. Assay buffer: 50 mM Tris-HCl, 150 mM NaCl pH7.8, containing 0.1% BSA (w/v) added just prior to use.
Compounds were added to the above reagents in a concentration series ranging between 100 μM-1.7 nM. The reaction was incubated for 4 hours at room temperature. Dual measurements were made using a Wallac Victor 1420 Multilabel Counter. First measurement: excitation 340 nm, emission 665 nm, delay 50 μs, window time 200 μs. second measurement: excitation 340 nm, emission 615 nm, delay 50 μs, window time 200 μs. Counts were automatically corrected for fluorescence crossover, quenching and background. The EC50 activities of compounds tested are recorded as: EC50: *=>10 μM, **=1-10 μM, ***=<1 μM.
(In general: In TR-FRET formats the signal depends on donor and acceptor labels being close together.)
A word on the EC50: it is the concentration giving half of the maximal effect. Consider `CN1C(C)(C)CC(NC(=O)c2ccc(-n3[nH]c(-c4ccno4)cc3=O)cc2)CC1(C)C` [Example 2, 4-(3-Isoxazol-5-yl-5-oxo-2,5-dihydro-pyrazol-1-yl)-N-(1,2,2,6,6-pentamethyl-piperidin-4-yl)-benzamide], for which the EC50 is more than 10 µM. On to `Cc1c(-c2ccco2)[nH]n(-c2ccc(C(=O)NC3CC(C)(C)N(C)C(C)(C)C3)cc2)c1=O` [Example 3, 4-(3-Furan-2-yl-4-methyl-5-oxo-2,5-dihydro-pyrazol-1-yl)-N-(1,2,2,6,6-pentamethyl-piperidin-4-yl)-benzamide], for which the EC50 is more than 10 µM.

Take `CN(C)CCCNC(=O)c1ccc(-n2[nH]c(-c3ccccc3)cc2=O)cc1` [Example 5]: the EC50 lay in the range of 1 to 10 µM.

As for `O=C(NCCN1CCN(Cc2ccccc2)CC1)c1ccc(-n2[nH]c(-c3ccccc3)cc2=O)cc1` [Example 6], the EC50 is more than 10 µM. For the compound `CN1C(C)(C)CC(NC(=O)c2ccc(-n3[nH]c(-c4ccccc4)cc3=O)cc2)CC1(C)C` [Example 7], the EC50 fell in the range of 1 to 10 µM. Still for that read-out and setting: the same measure for `O=C(NCCCCN1CCCC1)c1ccc(-n2[nH]c(-c3ccccc3)cc2=O)cc1` [Example 8]: less than 1 µM; for `O=C(NCCCNC1CCCCC1)c1ccc(-n2[nH]c(-c3ccccc3)cc2=O)cc1` [Example 9]: 1 to 10 µM; for `CN(C)CCCNC(=O)c1ccc(-n2[nH]c(-c3ccccn3)cc2=O)cc1` [Example 10]: less than 1 µM. `CN(C)CCCNC(=O)c1ccc(-n2[nH]c(-c3ccco3)cc2=O)cc1` [Example 11]: the EC50 was less than 1 µM.

For `CN(C)CCCNC(=O)c1ccc(-n2[nH]c(-c3cccnc3)cc2=O)cc1` [Example 12], the EC50 is 1 to 10 µM. The same measure, in the same setting: for `O=C(NCCCNC1CCCCC1)c1ccc(-n2[nH]c(-c3ccccn3)cc2=O)cc1` [Example 13] the value was 1 to 10 µM. Same read-out and setting: for `O=C(NCCCNC1CCCCC1)c1ccc(-n2[nH]c(-c3ccco3)cc2=O)cc1` [Example 14] the value was less than 1 µM; for `O=C(NCCCNC1CCCCC1)c1ccc(-n2[nH]c(-c3cccnc3)cc2=O)cc1` [Example 15], 1 to 10 µM. For `CN1C(C)(C)CC(NC(=O)c2ccc(-n3[nH]c(-c4ccccn4)cc3=O)cc2)CC1(C)C` [Example 16], the EC50 is less than 1 µM.

`CN(C)CCCNC(=O)c1ccc(-n2[nH]c(-c3ccoc3)cc2=O)cc1` [Example 17]: the EC50 lay within 1 to 10 µM. The same measure, in the same setting: the same measure for `O=C(NCCCNC1CCCCC1)c1ccc(-n2[nH]c(-c3ccoc3)cc2=O)cc1` [Example 18]: less than 1 µM.

As for `CN1C(C)(C)CC(NC(=O)c2ccc(-n3[nH]c(-c4ccco4)cc3=O)cc2)CC1(C)C` [Example 19], the EC50 was less than 1 µM.

With `CN1C(C)(C)CC(NC(=O)c2ccc(-n3[nH]c(-c4ccoc4)cc3=O)cc2)CC1(C)C` [Example 20], the EC50 was 1 to 10 µM.

As to `O=C(NCCCCN1CCCC1)c1ccc(-n2[nH]c(-c3ccco3)cc2=O)cc1` [Example 21], the EC50 fell in the range of 1 to 10 µM. As to `O=C(NCCCCN1CCCC1)c1ccc(-n2[nH]c(-c3ccoc3)cc2=O)cc1` [Example 22], the EC50 lay in the range of 1 to 10 µM.

Turning to `CN1C(C)(C)CC(NC(=O)c2ccc(-n3[nH]c(-c4cccnc4)cc3=O)cc2)CC1(C)C` [Example 23], the EC50 was 1 to 10 µM. The same measure, in the same setting: for `O=C(NCCCCN1CCCC1)c1ccc(-n2[nH]c(-c3ccccn3)cc2=O)cc1` [Example 24] the value was less than 1 µM. Still for that read-out and setting: the same measure for `O=C(NCCCCN1CCCC1)c1ccc(-n2[nH]c(-c3cccnc3)cc2=O)cc1` [Example 25]: 1 to 10 µM; for `CN(C)CCCNC(=O)c1ccc(-n2[nH]c(-c3cccc(F)c3)cc2=O)cc1` [Example 26]: less than 1 µM; for `O=C(NCCCNC1CCCCC1)c1ccc(-n2[nH]c(-c3cccc(F)c3)cc2=O)cc1` [Example 27]: 1 to 10 µM.

Consider `CN1C(C)(C)CC(NC(=O)c2ccc(-n3[nH]c(-c4cccc(F)c4)cc3=O)cc2)CC1(C)C` [Example 28], for which the EC50 was less than 1 µM.

On to `O=C(NCCCCN1CCCC1)c1ccc(-n2[nH]c(-c3cnccn3)cc2=O)cc1` [Example 29], for which the EC50 lay within 1 to 10 µM. As to `CN(C)CCCNC(=O)c1ccc(-n2[nH]c(-c3cnccn3)cc2=O)cc1` [Example 30], the EC50 is less than 1 µM.

Turning to `O=C(NCCCCN1CCCC1)c1ccc(-n2[nH]c(-c3cc4ccccc4o3)cc2=O)cc1` [Example 31], the EC50 was 1 to 10 µM.

For the compound `CN(C)CCCNC(=O)c1ccc(-n2[nH]c(-c3cc4ccccc4o3)cc2=O)cc1` [Example 32], the EC50 was in the range of 1 to 10 µM. On to `O=C(NCCCNC1CCCCC1)c1ccc(-n2[nH]c(-c3cc4ccccc4o3)cc2=O)cc1` [Example 33], for which the EC50 was 1 to 10 µM. For `CN1C(C)(C)CC(NC(=O)c2ccc(-n3[nH]c(-c4cc5ccccc5o4)cc3=O)cc2)CC1(C)C` [Example 34], the EC50 was in the range of 1 to 10 µM.
